Experimental data from the CheMixHub viscosity set.

Test: xn = mol fraction of the nth substance listed

CCCCCCCC[P+](CC)(CC)CC.N#Cc1ccc[n-]1 + OCCN(CCO)CCO
viscosity [mPa·s], 100 kPa
Conditions	293.15 K	298.15 K	303.15 K	313.15 K
x1 = 0.014	950	622	405	185
x1 = 0.025	986	640	415	190
x1 = 0.039	1004	657	426	193
x1 = 0.049	1011	660	426	193
x1 = 0.104	939	596	380	175
x1 = 0.167	824	539	351	163
x1 = 0.223	812	533	352	166
x1 = 0.315	722	474	314	152
x1 = 0.508	619	422	284	140
x1 = 0.647	600	406	273	136
x1 = 0.809	438	301	202	101

C1COCCN1 + OCCO
viscosity [mPa·s], 101 kPa
Conditions	293.15 K	303.15 K	313.15 K	323.15 K
x1 = 0.06476	23.01	–	–	–
x1 = 0.06828	–	–	9.851	–
x1 = 0.07	23.22	15.77	9.66	7
x1 = 0.2	24.69	16.33	10.32	7.69
x1 = 0.2273	24.37	–	–	–
x1 = 0.2296	–	–	10.49	–
x1 = 0.4	21.35	14.19	9.34	7.13
x1 = 0.4103	20.98	–	–	–
x1 = 0.4144	–	–	9.259	–
x1 = 0.6	11.83	8.07	6.02	4.41
x1 = 0.6173	–	–	6.339	–
x1 = 0.6201	11.78	–	–	–
x1 = 0.8601	4.454	–	–	–
x1 = 0.8629	–	–	2.391	–
x1 = 0.9	3.94	2.92	2.24	1.72

CC(O)CO (stereo unspecified) + OCCO
viscosity [mPa·s], 101 kPa
Conditions	x2 = 0.1212	x2 = 0.2346	x2 = 0.3459	x2 = 0.4339	x2 = 0.5501	x2 = 0.631	x2 = 0.7481	x2 = 0.8299	x2 = 0.9064
298.15 K	41.61	38.96	36.05	33.67	30.55	28.37	25.1	22.65	20.25
303.15 K	32.39	30.43	28.19	26.35	23.95	22.28	19.75	17.84	15.99
308.15 K	24.28	22.97	21.42	20.15	18.48	17.31	15.55	14.2	12.9

[Cl-].[Na+] + OCCO
101 kPa, x1 = 0.0588
Conditions	viscosity [mPa·s]
303 K	20.88
313 K	14.11
323 K	9.987

[Al] + [Ga]
323 K, 101 kPa
Conditions	viscosity [mPa·s]
x1 = 0.021	1.529
x1 = 0.1	1.638
